Tests used:
[1] = Solubility measurement in n-butylbenzene; assay type: physicochemical; conditions: room temperature, weight percent based on total solution weight
Protocol: The solubility of the small molecule semiconductor was measured in n-butylbenzene at room temperature. The weight percent is based on the total solution weight. Typically, the solubility is lower in n-butylbenzene compared to halogenated solvents such as chloroform, chlorobenzene, and dichlorobenzene.

[2] = Differential Scanning Calorimetry, thermal stability; assay type: physicochemical; conditions: DSC, heated from 30 to 360° C. at 10° C. per minute
Protocol: Differential Scanning Calorimetry Measurement
Differential Scanning Calorimeter (DSC, TA Instruments 2920 from TA Instruments of New Castle, Del.) was used to measure phase transition and melting point of the small molecule semiconductors. Examples 1 to 8 were heated from 30 to 350° C. at a heating rate of 10° C. per minute. […] No decomposition was observed up to the 350° C. of the testing range. […] Example 9 was heated from 30 to 360° C. at a heating rate of 10° C. per minute. […] Example 9 started to decompose around 357° C.

Row | Structure (SMILES) | Solubility in butyl benzene [1] [wt %] | melting point [°C] | Temperature at which decomposition started [2]
1 | CC(C)[Si](C#Cc1c2ccc(-c3ccc(-c4cccs4)s3)cc2c(C#C[Si](C(C)C)(C(C)C)C(C)C)c2ccc(-c3ccc(-c4cccs4)s3)cc12)(C(C)C)C(C)C [Example 8, 2,6-Bis(2,2′-bithiophene-5-yl)-9,10-bis-[(triisopropylsilyl)ethynyl]anthracene] | 0.2 | 299 | 
2 | CCc1ccc(-c2ccc3c(C#C[Si](C(C)C)(C(C)C)C(C)C)c4cc(-c5ccc(CC)s5)ccc4c(C#C[Si](C(C)C)(C(C)C)C(C)C)c3c2)s1 [Example 4, 2,6-Bis(5-ethyl-thiophene-2-yl)-9,10-bis-[(triisopropylsilyl)ethynyl]anthracene] | 1.4 | 274.6 | 
3 | CCCCCCc1ccc(-c2ccc3c(C#C[Si](C(C)C)(C(C)C)C(C)C)c4cc(-c5ccc(CCCCCC)s5)ccc4c(C#C[Si](C(C)C)(C(C)C)C(C)C)c3c2)s1 [Example 6, 2,6-Bis(5-hexyl-thiophene-2-yl)-9,10-bis-[(triisopropylsilyl)ethynyl]anthracene] | 2.5 | 190.3 | 
4 | CCCCCCc1ccsc1-c1ccc2c(C#C[Si](C(C)C)(C(C)C)C(C)C)c3cc(-c4sccc4CCCCCC)ccc3c(C#C[Si](C(C)C)(C(C)C)C(C)C)c2c1 [Example 7, 2,6-Bis(3-hexyl-thiophene-2-yl)-9,10-bis-[(triisopropylsilyl)ethynyl]anthracene] | 4.2 | 141.8 | 
5 | Cc1ccc(-c2ccc3c(C#C[Si](C(C)C)(C(C)C)C(C)C)c4cc(-c5ccc(C)s5)ccc4c(C#C[Si](C(C)C)(C(C)C)C(C)C)c3c2)s1 [Example 2, 2,6-Bis(5-methyl-thiophene-2-yl)-9,10-bis-[(triisopropylsilyl)ethynyl]anthracene] | 0.05 | 333 | 
6 | CCCc1ccc(-c2ccc3c(C#C[Si](C(C)C)(C(C)C)C(C)C)c4cc(-c5ccc(CCC)s5)ccc4c(C#C[Si](C(C)C)(C(C)C)C(C)C)c3c2)s1 [Example 5, 2,6-Bis(5-propyl-thiophene-2-yl)-9,10-bis-[(triisopropylsilyl)ethynyl]anthracene] | 1.4 | 208.3 | 
7 | Cc1ccsc1-c1ccc2c(C#C[Si](C(C)C)(C(C)C)C(C)C)c3cc(-c4sccc4C)ccc3c(C#C[Si](C(C)C)(C(C)C)C(C)C)c2c1 [Example 3, 2,6-Bis(3-methyl-thiophene-2-yl)-9,10-bis-[(triisopropylsilyl)ethynyl]anthracene] | 2.3 | 237.6 | 
8 | CC(C)[Si](C#Cc1c2ccc(-c3ccc(C=O)s3)cc2c(C#C[Si](C(C)C)(C(C)C)C(C)C)c2ccc(-c3ccc(C=O)s3)cc12)(C(C)C)C(C)C [Example 9, 2,6-Bis(5-formyl-thiophene-2-yl)-9,10-bis-[(triisopropylsilyl)ethynyl]anthracene] | 0.04 | > 350 | around 357 °C
9 | CC(C)[Si](C#Cc1c2ccc(-c3cccs3)cc2c(C#C[Si](C(C)C)(C(C)C)C(C)C)c2ccc(-c3cccs3)cc12)(C(C)C)C(C)C [Example 1, 2,6-Bis(thiophene-2-yl)-9,10-bis-[(triisopropylsilyl)ethynyl]anthracene] | 0.05 | 293 | 
